Legend:
[1] = tested on: Human monocyte cell line THP-1; test: Detection of THP-1 cell pyroptosis (Caspase-Glo 1 Inflammasome Assay); assay type: cell-based; settings: 20 nM PMA 48 h, 1 μg/mL LPS, compound 3 h
In short: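 Differentiated with 20 nM PMA for 48 h (50,000 cells/well), then given serum-free medium with 1 μg/mL LPS and compound in a 10-point, 3-fold series from 10 μM for 3 h at 37 °C. Caspase-1 activity read with Caspase-Glo 1 Inflammasome kit; IC50 calculated.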

[2] = tested on: IL-1β release in human PBMCs; test: Assay of IL-1β release in human PBMCs; assay type: cell-based; settings: 10 ng/mL LPS 3 h, compound 0.5 h, 5 mM ATP 1 h, ELISA
Method: 5 mL of human venous whole blood from a healthy donor was placed in a Li-heparin tube. PBMCs were isolated and incubated in a culture medium containing 10 ng/mL LPS at 37° C./5% CO2 for 3 h. Cells were plated in a 96-well plate at 50 μL per well. 25 μL of compound or solvent control was added to each well and 3-fold diluted in gradient from a maximum concentration of 10 μM, and 8 gradient concentrations were set. The mixtures were incubated for 0.5 h. 25 μL of ATP at a final concentration of 5 mM was added to each well, and the resulting mixtures were incubated for 1 h. After the incubation, the mixtures were centrifuged at 1500 rpm for 20 min, and the supernatant was collected to detect the expression level of […] by ELISA (BD, Human IL-1β ELISA Set II, Cat #557953). IC50 was calculated using GraphPad Prism7.0 software. The results are shown in Table 2, which indicate that: the compounds disclosed herein down-regulate release of mature IL-1β by inhibiting the activity of Caspase-1, and the IC50 is <50 nM.

[3] = Pharmacokinetic analysis of compounds in rats; assay type: in vivo, SD rats; settings: for F %: po 10 mg/kg vs iv 1 mg/kg
Method: Healthy adult SD rats weighing 180-220 g were fasted (free access to water) overnight and divided into tail vein administration group and intragastric administration group. The tail vein administration group was subjected to blood collection of 0.1 mL from orbital venous plexus before the administration and 5 min, 15 min, 0.5 h, 1 h, 2 h, 4 h, 8 h, 12 h and 24 h after the administration, and plasma was separated out by centrifugation at 4° C. for 5 min and stored at −20° C. for test. The intragastric administration group was subjected to blood collection of 0.1 mL from orbital venous plexus before the administration and 5 min, 15 min, 0.5 h, 1 h, 2 h, 4 h, 8 h, 12 h and 24 h after the administration, and the subsequent treatment procedures were the same as those of the tail vein injection group. The concentration of parent drug in the plasma was determined by LC-MS/MS.

[4] = SD rats, iv (tail vein), 1 mg/kg, plasma
[5] = SD rats, po (intragastric), 10 mg/kg, plasma
[6] = Homo sapiens, THP-1, THP-1 pyroptosis

Compound: C[C@@H](c1ccc2c(c1NC(=O)NS(=N)(=O)c1cc(C(C)(C)O)co1)CCC2)C1CCC1 (mixture of isomers) [Compound 80-2, (RS)- and (SS)-N-((5-((R)-1-cyclobutylethyl)-2,3-dihydro-1H-inden-4-yl)carbamoyl)-4-(2-hydroxypropan-2-yl)furan-2-sulfonimidamide]
- IC50 ([1]; THP-1 pyroptosis): ≤ 100 nM
- IC50 [2]: 14.8 nM

Compound: C[C@@H](c1ccc2c(c1NC(=O)NS(=N)(=O)c1cc(C(C)(C)O)co1)CCC2)C1CC1 (mixture of isomers) [Compound 6-2, (RS, RC)- and (SS, RC)-N-((5-(-1-cyclopropylethyl)-2,3-dihydro-1H-inden-4-yl)carbamoyl)-4-(2-hydroxypropan-2-yl)furan-2-sulfonimidamide]
- IC50 ([1]; THP-1 pyroptosis): 100 to 500 nM
- AUC [3, 4]: 1657 ng·h/mL
- Cl [3, 4]: 10.2 mL/min/kg
- Vss [3, 4]: 0.781 L/kg
- t1/2 [3, 4]: 1.5 h
- F % ([3]; SD rats): 65.9%
- AUC [3, 5]: 10920 ng·h/mL
- Cmax [3, 5]: 4073 ng/mL
- t1/2 [3, 5]: 2.8 h

Compound: Cc1oc(S(=O)(=O)NC(=O)Nc2c([C@@H](C)C3CC3)ccc3c2CCC3)cc1C(C)(C)O [Compound 23, (S)-N-((5-(1-cyclopropylethyl)-2,3-dihydro-1H-inden-4-yl)carbamoyl)-4-(2-hydroxypropan-2-yl)-5-methylfuran-2-sulfonamide]
- IC50 [1, 6]: 100 to 500 nM
- IC50 ([2]; PBMC): 5 nM

Compound: C[C@H](c1cc(F)c2c(c1NC(=O)NS(=O)(=O)c1cc(C(C)(C)O)co1)CCC2)C1CC1 [Compound 43, (S)-N-((5-(1-cyclopropylethyl)-7-fluoro-2,3-dihydro-1H-inden-4-yl)carbamoyl)-4-(2-hydroxypropan-2-yl)furan-2-sulfonamide]
- IC50 [1, 6]: 500 to 1000 nM
- IC50 ([2]; PBMC): 11.6 nM

Compound: Cc1oc(S(=N)(=O)NC(=O)Nc2c(C(C)C3CC3)ccc3c2CCC3)cc1C(C)(C)O (single isomer, unassigned) [Compound 24-2, RS- and SS-N-((5-(1-cyclopropylethyl)-2,3-dihydro-1H-inden-4-yl)carbamoyl)-4-(2-hydroxypropan-2-yl)-5-methylfuran-2-sulfonimidamide]
- IC50 ([1]; THP-1 pyroptosis): ≤ 100 nM
- IC50 [2]: 17.4 nM

Compound: CC(c1ccc2c(c1NC(=O)NS(=N)(=O)c1cc(C(C)(C)O)co1)CCC2)C1CC1 (racemic) [Compound 8-2, (RS, SC)- and (SS, SC)-N-((5-(1-cyclopropylethyl)-2,3-dihydro-1H-inden-4-yl)carbamoyl)-4-(2-hydroxypropan-2-yl)furan-2-sulfonimidamide]
- IC50 ([1]; THP-1 pyroptosis): 500 to 1000 nM
- AUC [3, 4]: 2170 ng·h/mL
- Cl [3, 4]: 7.8 mL/min/kg
- Vss [3, 4]: 0.656 L/kg
- t1/2 [3, 4]: 2.0 h
- F % ([3]; SD rats): 66.7%
- AUC [3, 5]: 14484 ng·h/mL
- Cmax [3, 5]: 6190 ng/mL
- t1/2 [3, 5]: 3.4 h

Compound: (RS, RC)- and (SS, RC)-N-((5-(1-cyclopropylethyl)-2,3-dihydro-1H-inden-4-yl-7-d)carbamoyl)-4-(2-hydroxypropan-2-yl)furan-2-sulfonimidamide [Compound 31-2]
- IC50 ([1]; THP-1 pyroptosis): ≤ 100 nM
- IC50 [2]: 25 nM

Compound: [2H]c1cc([C@H](C)C2CC2)c(NC(=O)NS(=O)(=O)c2cc(C(C)(C)O)co2)c2c1CCC2 [Compound 29, (R)-N-((5-(1-cyclopropylethyl)-2,3-dihydro-1H-inden-4-yl-7-d)carbamoyl)-4-(2-hydroxypropan-2-yl)furan-2-sulfonamide]
- IC50 [1, 6]: 100 to 500 nM
- IC50 ([2]; PBMC): 18.5 nM

Compound: C[C@@H](c1cc(F)c2c(c1NC(=O)N[S@@](=N)(=O)c1cc(C(C)(C)O)co1)CCC2)C1CC1 (mixture of isomers) [Compound 42-1, (R)- and (S)-N-((5-((R)-1-cyclopropylethyl)-7-fluoro-2,3-dihydro-1H-inden-4-yl)carbamoyl)-4-(2-hydroxypropan-2-yl)furan-2-sulfonimidamide]
- IC50 [1, 6]: 100 to 500 nM
- IC50 ([2]; PBMC): 18.5 nM

Compound: RS- and SS-N-((5-(cyclobutylmethyl)-2,3-dihydro-1H-inden-4-yl-7-d)carbamoyl)-4-(2-hydroxypropan-2-yl)furan-2-sulfonimidamide [Compound 39-1]
- IC50 ([1]; THP-1 pyroptosis): ≤ 100 nM
- IC50 [2]: 31.7 nM

Compound: [2H]c1cc([C@@H](C)C2CC2)c(NC(=O)NS(=N)(=O)c2cc(C(C)(C)O)co2)c2c1CCC2 (single isomer, unassigned) [Compound 32-2, (RS, SC)- and (SS, SC)-N-((5-(1-cyclopropylethyl)-2,3-dihydro-1H-inden-4-yl-7-d)carbamoyl)-4-(2-hydroxypropan-2-yl)furan-2-sulfonimidamide]
- IC50 ([1]; THP-1 pyroptosis): ≤ 100 nM
- IC50 ([2]; PBMC): 28.9 nM

Compound: C[C@@H](c1cc(F)c2c(c1NC(=O)NS(=O)(=O)c1cc(C(C)(C)O)co1)CCC2)C1CC1 [Compound 41, (R)-N-((5-(1-cyclopropylethyl)-7-fluoro-2,3-dihydro-1H-inden-4-yl)carbamoyl)-4-(2-hydroxypropan-2-yl)furan-2-sulfonamide]
- IC50 [1, 6]: ≤ 100 nM
- IC50 ([2]; PBMC): 5 nM

Compound: CC(C)(O)c1coc(S(=N)(=O)NC(=O)Nc2c(CC3CCC3)ccc3c2CCC3)c1 (single isomer, unassigned) [Compound 18-1, RS- and SS-N-((5-(cyclobutylmethyl)-2,3-dihydro-1H-inden-4-yl)carbamoyl)-4-(2-hydroxypropan-2-yl)furan-2-sulfonimidamide]
- IC50 ([1]; THP-1 pyroptosis): 500 to 1000 nM
- AUC ([3]; rat, in vivo, iv, 1 mg/kg): 2226 ng·h/mL
- Cl ([3]; rat, in vivo, iv, 1 mg/kg): 7.59 mL/min/kg
- Vss ([3]; rat, in vivo, iv, 1 mg/kg): 0.845 L/kg
- t1/2 ([3]; rat, in vivo, iv, 1 mg/kg): 2.2 h
- AUC ([3]; rat, in vivo, po, 10 mg/kg): 20153 ng·h/mL
- Cmax ([3]; rat, in vivo, po, 10 mg/kg): 9867 ng/mL
- t1/2 ([3]; rat, in vivo, po, 10 mg/kg): 2.9 h

Compound: C[C@H](c1ccc2c(c1NC(=O)NS(=O)(=O)c1cc(C(C)(C)O)co1)CCC2)C1CC1 [Compound 7, (S)-N-((5-(1-cyclopropylethyl)-2,3-dihydro-1H-inden-4-yl)carbamoyl)-4-(2-hydroxypropan-2-yl)furan-2-sulfonamide]
- IC50 [1, 6]: ≤ 100 nM
- IC50 ([2]; PBMC): 41.1 nM

Compound: C[C@@H](c1ccc2c(c1NC(=O)NS(=N)(=O)c1cc(C(C)(C)O)co1)CC2)C1CC1 (mixture of isomers) [Compound 38-1, RS- and SS-N-((3-((R)-1-cyclopropylethyl)bicyclo[4.2.0]octa-1(6),2,4-trien-2-yl)carbamoyl)-4-(2-hydroxypropan-2-yl)furan-2-sulfonimidamide]
- IC50 ([1]; THP-1 pyroptosis): ≤ 100 nM
- AUC [3, 4]: 2112 ng·h/mL
- Cl [3, 4]: 8.2 mL/min/kg
- Vss [3, 4]: 0.679 L/kg
- t1/2 [3, 4]: 2.2 h
- F % ([3]; SD rats): 184%
- AUC [3, 5]: 38823 ng·h/mL
- Cmax [3, 5]: 13267 ng/mL
- t1/2 [3, 5]: 3.1 h

Compound: C[C@@H](c1ccc2c(c1NC(=O)NS(=O)(=O)c1cnc(C(C)(C)O)s1)CCC2)C1CC1 [Compound 87, (R)-N-((5-(1-cyclopropylethyl)-2,3-dihydro-1H-inden-4-yl)carbamoyl)-2-(2-hydroxypropan-2-yl)thiazole-5-sulfonamide]
- IC50 [1, 6]: ≤ 100 nM
- IC50 ([2]; PBMC): 40.4 nM

Compound: CC(c1ccc2c(c1NC(=O)NS(=N)(=O)c1cc(C(C)(C)O)co1)CC2)C1CC1 (racemic) [Compound 36-1, (RS, SC)- and (SS, SC)-N-((3-(1-cyclopropylethyl)bicyclo[4.2.0]octa-1(6),2,4-trien-2-yl)carbamoyl)-4-(2-hydroxypropan-2-yl)furan-2-sulfonimidamide]
- IC50 ([1]; THP-1 pyroptosis): ≤ 100 nM
- AUC [3, 4]: 14614 ng·h/mL
- Cl [3, 4]: 1.3 mL/min/kg
- Vss [3, 4]: 0.22 L/kg
- t1/2 [3, 4]: 3.9 h
- F % ([3]; SD rats): 98.5%
- AUC [3, 5]: 143938 ng·h/mL
- Cmax [3, 5]: 33467 ng/mL
- t1/2 [3, 5]: 2.9 h

Compound: RS- and SS-N-((5-(cyclobutylmethyl)-2,3-dihydro-1H-inden-4-yl)carbamoyl)-4-(2-hydroxypropan-2-yl-1,1,1,3,3,3-d6)furan-2-sulfonimidamide [Compound 50-1]
- IC50 ([1]; THP-1 pyroptosis): 500 to 1000 nM

Compound: CC(c1cc(F)c2c(c1NC(=O)NS(=O)(=O)c1cc(C(C)(C)O)co1)CCC2)C1CC1 (centres unmarked) [Compound 9, N-((5-(1-cyclopropylethyl)-7-fluoro-2,3-dihydro-1H-inden-4-yl)carbamoyl)-4-(2-hydroxypropan-2-yl)furan-2-sulfonamide]
- IC50 ([2]; PBMC): 25.6 nM

Compound: C[C@H](c1ccc2c(c1NC(=O)NS(=O)(=O)c1ccc(C(C)(C)O)s1)CCC2)C1CC1 [Compound 57, (S)-N-((5-(1-cyclopropylethyl)-2,3-dihydro-1H-inden-4-yl)carbamoyl)-5-(2-hydroxypropan-2-yl)thiophene-2-sulfonamide]
- IC50 [1, 6]: 1000 to 5000 nM

Source: US11976054B2, “Amide derivative and preparation method therefore and use thereof in medicine” (Chengdu Baiyu Pharmaceutical Co., Ltd., priority 2019, dated 2024)
